According to the supplement of paper PMC10307832:

Experiments:
Assay in all cases: relative viability (nuclei count vs DMSO), 5 days (fraction); higher = more cells survive
Sulindac + Palbociclib = compound: CC1=C(CC(=O)O)c2cc(F)ccc2/C1=C\c1ccc([S+](C)[O-])cc1 [Sulindac] + CC(=O)c1c(C)c2cnc(Nc3ccc(N4CCNCC4)cn3)nc2n(C2CCCC2)c1=O [Palbociclib] (partner 0.5 µM)
Method in brief: (§1)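 Lung cancer cell lines in 1536-well plates were dosed by pin tool the day after seeding, either with one drug alone or with a fixed anchor-drug dose plus five library-drug doses (not always all listed) in √10 steps. After 5 days, cells were fixed and their nuclei stained in one step (final 0.05% Triton X-100, 1% formaldehyde, 1 ug/ml Hoechst), then counted on 4× images. Relative viability is the nuclei count in treated wells divided by that in vehicle wells. Values are medians of duplicate plates.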

[1] = compound: CN[C@@H]1C[C@H]2O[C@@](C)([C@@H]1OC)n1c3ccccc3c3c4c(c5c6ccccc6n2c5c31)C(=O)NC4 [Staurosporine] + N=C(N)NC(=N)NCCc1ccccc1 [Phenformin] (partner 250 µM)
Method in brief: as §1

Staurosporine + Olaparib = compound: CN[C@@H]1C[C@H]2O[C@@](C)([C@@H]1OC)n1c3ccccc3c3c4c(c5c6ccccc6n2c5c31)C(=O)NC4 [Staurosporine] + O=C(c1cc(Cc2n[nH]c(=O)c3ccccc23)ccc1F)N1CCN(C(=O)C2CC2)CC1 [Olaparib] (partner 8 µM)
Method in brief: as §1

[2] = compound: O=c1[nH]cc(F)c(=O)[nH]1 [5-Fluorouracil] + N=C(N)NC(=N)NCCc1ccccc1 [Phenformin] (partner 250 µM)
Method in brief: as §1

H3255 was tested, and the relative viability (Sulindac + Palbociclib; first compound 0.08 µM) was 0.288, the relative viability (Sulindac + Palbociclib; first compound 0.253 µM) was 0.32 and the relative viability (Sulindac + Palbociclib; first compound 0.8 µM) was 0.391. For the same cell line, the relative viability (Sulindac + Palbociclib; first compound 2.53 µM) was 0.311, the relative viability (Sulindac + Palbociclib; first compound 8 µM) was 0.326 and the relative viability ([1]; first compound 0.005 µM) was 0.326. It also gave a relative viability ([1]; first compound 0.01581 µM) of 0.28, a relative viability ([1]; first compound 0.05 µM) of 0.249 and a relative viability ([1]; first compound 0.1581 µM) of 0.181. The relative viability ([1]; first compound 0.5 µM) was 0.14, the relative viability (Staurosporine + Olaparib; first compound 0.005 µM) was 0.447 and the relative viability (Staurosporine + Olaparib; first compound 0.01581 µM) was 0.315. It also gave a relative viability (Staurosporine + Olaparib; first compound 0.05 µM) of 0.28, a relative viability (Staurosporine + Olaparib; first compound 0.1581 µM) of 0.24 and a relative viability (Staurosporine + Olaparib; first compound 0.5 µM) of 0.155. For the same cell line, the relative viability ([2]; first compound 0.02 µM) was 0.35, the relative viability ([2]; first compound 0.2 µM) was 0.393 and the relative viability ([2]; first compound 0.6325 µM) was 0.35. The relative viability ([2]; first compound 2 µM) was 0.351.
NCI-H23 was tested, and the relative viability (Sulindac + Palbociclib; first compound 0.08 µM) was 0.613, the relative viability (Sulindac + Palbociclib; first compound 0.253 µM) was 0.549 and the relative viability (Sulindac + Palbociclib; first compound 0.8 µM) was 0.495. For the same cell line, the relative viability (Sulindac + Palbociclib; first compound 2.53 µM) was 0.505, the relative viability (Sulindac + Palbociclib; first compound 8 µM) was 0.589 and the relative viability ([1]; first compound 0.005 µM) was 0.763. For the same cell line, the relative viability ([1]; first compound 0.05 µM) was 0.351, the relative viability ([1]; first compound 0.1581 µM) was 0.174 and the relative viability ([1]; first compound 0.5 µM) was 0.161. For the same cell line, the relative viability (Staurosporine + Olaparib; first compound 0.005 µM) was 0.232, the relative viability (Staurosporine + Olaparib; first compound 0.01581 µM) was 0.138 and the relative viability (Staurosporine + Olaparib; first compound 0.05 µM) was 0.183. It also gave a relative viability (Staurosporine + Olaparib; first compound 0.1581 µM) of 0.135, a relative viability (Staurosporine + Olaparib; first compound 0.5 µM) of 0.102 and a relative viability ([2]; first compound 0.02 µM) of 0.686. For the same cell line, the relative viability ([2]; first compound 0.2 µM) was 0.897, the relative viability ([2]; first compound 0.6325 µM) was 0.438 and the relative viability ([2]; first compound 2 µM) was 0.298.
Work on CAL-12T yielded a relative viability (Sulindac + Palbociclib; first compound 0.08 µM) of 0.216, a relative viability (Sulindac + Palbociclib; first compound 0.253 µM) of 0.549 and a relative viability (Sulindac + Palbociclib; first compound 0.8 µM) of 0.314. The relative viability (Sulindac + Palbociclib; first compound 2.53 µM) was 0.526, the relative viability (Sulindac + Palbociclib; first compound 8 µM) was 0.576 and the relative viability ([1]; first compound 0.005 µM) was 0.205. For the same cell line, the relative viability ([1]; first compound 0.01581 µM) was 0.165, the relative viability ([1]; first compound 0.05 µM) was 0.235 and the relative viability ([1]; first compound 0.1581 µM) was 0.103. It also gave a relative viability ([1]; first compound 0.5 µM) of 0.112, a relative viability (Staurosporine + Olaparib; first compound 0.005 µM) of 0.441 and a relative viability (Staurosporine + Olaparib; first compound 0.01581 µM) of 0.253. It also gave a relative viability (Staurosporine + Olaparib; first compound 0.05 µM) of 0.252, a relative viability (Staurosporine + Olaparib; first compound 0.1581 µM) of 0.148 and a relative viability (Staurosporine + Olaparib; first compound 0.5 µM) of 0.163. For the same cell line, the relative viability ([2]; first compound 0.02 µM) was 0.616, the relative viability ([2]; first compound 0.2 µM) was 0.614 and the relative viability ([2]; first compound 0.6325 µM) was 0.37. For the same cell line, the relative viability ([2]; first compound 2 µM) was 0.425.
Work on A-427 yielded a relative viability (Sulindac + Palbociclib; first compound 0.08 µM) of 0.486, a relative viability (Sulindac + Palbociclib; first compound 0.253 µM) of 0.548 and a relative viability (Sulindac + Palbociclib; first compound 0.8 µM) of 0.495. For the same cell line, the relative viability (Sulindac + Palbociclib; first compound 2.53 µM) was 0.473, the relative viability (Sulindac + Palbociclib; first compound 8 µM) was 0.565 and the relative viability ([1]; first compound 0.005 µM) was 0.189. The relative viability ([1]; first compound 0.01581 µM) was 0.114, the relative viability ([1]; first compound 0.05 µM) was 0.109 and the relative viability ([1]; first compound 0.1581 µM) was 0.0973. For the same cell line, the relative viability ([1]; first compound 0.5 µM) was 0.123, the relative viability (Staurosporine + Olaparib; first compound 0.005 µM) was 0.694 and the relative viability (Staurosporine + Olaparib; first compound 0.01581 µM) was 0.482. The relative viability (Staurosporine + Olaparib; first compound 0.05 µM) was 0.284, the relative viability (Staurosporine + Olaparib; first compound 0.1581 µM) was 0.189 and the relative viability (Staurosporine + Olaparib; first compound 0.5 µM) was 0.139. For the same cell line, the relative viability ([2]; first compound 0.02 µM) was 0.29, the relative viability ([2]; first compound 0.2 µM) was 0.461 and the relative viability ([2]; first compound 0.6325 µM) was 0.279. For the same cell line, the relative viability ([2]; first compound 2 µM) was 0.212.
For HARA, the relative viability (Sulindac + Palbociclib; first compound 0.08 µM) was 0.294, the relative viability (Sulindac + Palbociclib; first compound 0.253 µM) was 0.3 and the relative viability (Sulindac + Palbociclib; first compound 0.8 µM) was 0.3. It also gave a relative viability (Sulindac + Palbociclib; first compound 2.53 µM) of 0.256, a relative viability (Sulindac + Palbociclib; first compound 8 µM) of 0.227 and a relative viability ([1]; first compound 0.005 µM) of 0.374. For the same cell line, the relative viability ([1]; first compound 0.05 µM) was 0.211, the relative viability ([1]; first compound 0.1581 µM) was 0.133 and the relative viability ([1]; first compound 0.5 µM) was 0.0495. It also gave a relative viability (Staurosporine + Olaparib; first compound 0.005 µM) of 0.682, a relative viability (Staurosporine + Olaparib; first compound 0.01581 µM) of 0.363 and a relative viability (Staurosporine + Olaparib; first compound 0.05 µM) of 0.156. For the same cell line, the relative viability (Staurosporine + Olaparib; first compound 0.1581 µM) was 0.126, the relative viability (Staurosporine + Olaparib; first compound 0.5 µM) was 0.131 and the relative viability ([2]; first compound 0.02 µM) was 0.426. The relative viability ([2]; first compound 0.2 µM) was 0.559, the relative viability ([2]; first compound 0.6325 µM) was 0.455 and the relative viability ([2]; first compound 2 µM) was 0.27.
For NCI-H1793, the relative viability (Sulindac + Palbociclib; first compound 0.08 µM) was 0.301, the relative viability (Sulindac + Palbociclib; first compound 0.253 µM) was 0.375 and the relative viability (Sulindac + Palbociclib; first compound 2.53 µM) was 0.34. For the same cell line, the relative viability (Sulindac + Palbociclib; first compound 8 µM) was 0.364, the relative viability ([1]; first compound 0.005 µM) was 0.453 and the relative viability ([1]; first compound 0.05 µM) was 0.357. For the same cell line, the relative viability ([1]; first compound 0.5 µM) was 0.129, the relative viability (Staurosporine + Olaparib; first compound 0.005 µM) was 0.815 and the relative viability (Staurosporine + Olaparib; first compound 0.05 µM) was 0.3. It also gave a relative viability (Staurosporine + Olaparib; first compound 0.1581 µM) of 0.15, a relative viability (Staurosporine + Olaparib; first compound 0.5 µM) of 0.14 and a relative viability ([2]; first compound 0.02 µM) of 0.467. For the same cell line, the relative viability ([2]; first compound 0.2 µM) was 0.476, the relative viability ([2]; first compound 0.6325 µM) was 0.42 and the relative viability ([2]; first compound 2 µM) was 0.266.
NCI-H1623 showed a relative viability ([1]; first compound 0.005 µM) of 0.574, a relative viability ([1]; first compound 0.01581 µM) of 0.578 and a relative viability ([1]; first compound 0.05 µM) of 0.631. For the same cell line, the relative viability ([1]; first compound 0.1581 µM) was 0.59, the relative viability ([1]; first compound 0.5 µM) was 0.306 and the relative viability ([2]; first compound 0.02 µM) was 0.45. For the same cell line, the relative viability ([2]; first compound 0.2 µM) was 0.582, the relative viability ([2]; first compound 0.6325 µM) was 0.364 and the relative viability ([2]; first compound 2 µM) was 0.335.
Cell Line NCI-H2023 has a relative viability (Sulindac + Palbociclib; first compound 0.08 µM) of 0.387, a relative viability (Sulindac + Palbociclib; first compound 0.253 µM) of 0.429 and a relative viability (Sulindac + Palbociclib; first compound 0.8 µM) of 0.362. For the same cell line, the relative viability (Sulindac + Palbociclib; first compound 2.53 µM) was 0.415, the relative viability (Sulindac + Palbociclib; first compound 8 µM) was 0.454 and the relative viability ([1]; first compound 0.005 µM) was 0.214. For the same cell line, the relative viability ([1]; first compound 0.01581 µM) was 0.16, the relative viability ([1]; first compound 0.05 µM) was 0.128 and the relative viability ([1]; first compound 0.1581 µM) was 0.0907. For the same cell line, the relative viability ([1]; first compound 0.5 µM) was 0.0615, the relative viability (Staurosporine + Olaparib; first compound 0.005 µM) was 0.265 and the relative viability (Staurosporine + Olaparib; first compound 0.01581 µM) was 0.192. It also gave a relative viability (Staurosporine + Olaparib; first compound 0.05 µM) of 0.117, a relative viability (Staurosporine + Olaparib; first compound 0.1581 µM) of 0.0758 and a relative viability (Staurosporine + Olaparib; first compound 0.5 µM) of 0.0558. It also gave a relative viability ([2]; first compound 0.02 µM) of 0.448, a relative viability ([2]; first compound 0.2 µM) of 0.181 and a relative viability ([2]; first compound 0.6325 µM) of 0.102. It also gave a relative viability ([2]; first compound 2 µM) of 0.0896.
In the case of ABC-1, the relative viability (Sulindac + Palbociclib; first compound 0.08 µM) is reported as 0.73, the relative viability (Sulindac + Palbociclib; first compound 0.253 µM) is reported as 0.946 and the relative viability (Sulindac + Palbociclib; first compound 0.8 µM) is reported as 0.514. It also gave a relative viability (Sulindac + Palbociclib; first compound 2.53 µM) of 0.475, a relative viability (Sulindac + Palbociclib; first compound 8 µM) of 0.639 and a relative viability ([1]; first compound 0.005 µM) of 0.169. It also gave a relative viability ([1]; first compound 0.01581 µM) of 0.205, a relative viability ([1]; first compound 0.05 µM) of 0.0951 and a relative viability ([1]; first compound 0.1581 µM) of 0.0728. It also gave a relative viability ([1]; first compound 0.5 µM) of 0.105, a relative viability (Staurosporine + Olaparib; first compound 0.005 µM) of 0.429 and a relative viability (Staurosporine + Olaparib; first compound 0.01581 µM) of 0.289. The relative viability (Staurosporine + Olaparib; first compound 0.05 µM) was 0.564, the relative viability (Staurosporine + Olaparib; first compound 0.1581 µM) was 0.211 and the relative viability (Staurosporine + Olaparib; first compound 0.5 µM) was 0.213. It also gave a relative viability ([2]; first compound 0.02 µM) of 0.202, a relative viability ([2]; first compound 0.2 µM) of 0.253 and a relative viability ([2]; first compound 0.6325 µM) of 0.257. It also gave a relative viability ([2]; first compound 2 µM) of 0.23.
